Data from US5358936A, “Anionic furanose derivatives, methods of making and using the same” (Gordon; Paul, priority 1991, dated 1994).
Entries after “also recorded” stand apart in the source; their conditions may differ. Counter-ions that a name gives are not always drawn. Like-named read-outs stand apart in the source and are kept apart here.

Legend:
[1] = test system: myeloperoxidase (MPO); neutrophil infiltration; experiment: Myeloperoxidase (MPO) accumulation in ZAS-swollen footpads (Example 23); format: in vivo, rat; conditions: ZAS alone 94.42 ± 12.81, normal 11.67 ± 1.87, P < 0.01
Description: The relationship of neutrophil infiltration to ZAS-induced swelling, and its drug-inhibition, was evaluated in another study. In this study, all procedures employing ZAS and Compound III were carried out as above, except that, Compound III was administered 45 minutes before ZAS, and standardized samples of the swollen footpads were removed and subjected to analysis for myeloperoxidase activity (MPO), according to the method of Lundberg et al., Inflammation, 7:247, (1983). MPO is a neutrophil-specificenzyme, and its assay is the most widely used method of identifying the degree of neutrophil participation in organ pathology.

gastric ulcers = conditions: 50 mg/kg oral gavage 45 minutes before; for Frequency of ulcer-bearing rats: combined groups P<0.01
Description: In this method, a relatively large amount of ethanol is administered to rats by oral gavage (1.0 ml/200 gm), a procedure widely used to produce ordinary gastric ulceration. This injection, however, is given in combination with the intraperitoneal injection of heparin sulfate (10 mg/kg).
Compound III treatment was 50 mg/kg by oral garage in distilled water as diluent, at 45 minutes before ulcer induction.
The effects of ethanol alone and ethanol plus Compound III were assessed four hours after ethanol administration. The effects of ethanol plus heparin and ethanol plus heparin plus Compound III were assessed 24 hours after administration of the ulcer inducing combination. Ulcer formation was assessed as discussed in Example 20.
In this and the following examples, the potassium salt of the drug indicated by a Roman numeral was used; i.e., M is potassium (K^+).

mouse paw = experiment: Mouse paw edema provoked by neutral proteases (Example 32); format: in vivo; conditions: two hours; SOD 150 units IV; Compound III 50 mg/kg IP and IV; SOD P<0.05, Compound III P<0.01
Description: Both tryptic activity and collagenase activity are components of the tissue-injuring neutral proteinase activities secreted by neutrophils. Collagenase activity has also been associated with injury to cartilage; and, in another context, with the micro-injury to blood vessels that permits the extravasation and metastasis of, and by, tumor cells.
The effects of Compound III on rat and mouse paw edema as provoked by injection of these enzymes were evaluated. SOD injected IV and Compound III injected IP and IV at zero time, (as in Example 25), inhibited edema at two hours by from 33-40 percent, in both species. […] Both drug effects were significant by t test, SOD at P<0.05 and Compound III at P<0.01.

gastric mucosal ulcers = experiment: Healing of established gastric ulcers induced by acetic acid (Example 34); format: in vivo, rat; conditions: rat, in vivo; tripotassium salt
From the text: To evaluate drug effects on peptic ulcer healing, gastric mucosal ulcers were produced in rats, after a two day fast, by a modification of the method of Konturek et al., Am. J. Med., Vol. 86, 6A, 32 (1989). Briefly, to produce a mucosal ulcer, Konturek et al. applied 100 percent acetic acid for twenty seconds to the stomach serosa through a small cylindrical mold, 4.2 mm in diameter. The aim here was to make ulceration more severe than was achieved by the Konturek group so that spontaneous healing would not be as pronounced as they found in the controls, over an experimental period of seven days.
All drugs studied were suspended in 0.25 percent (by weight) aqueous methylcellulose solution as the vehicle or diluent, which also served as the placebo given to the controls. Treatments were given once daily by oral gavage, in one milliliter of vehicle. The treatment groups were: Control; Sucralfate at 200 mg/kg; and Compound III:Al at 200 mg/kg.
At the end of the treatment period, stomachs were removed, ulcer diameters were measured, and determination was made of the presence or absence of perforation.
A second study was carried out in which ulcer evolution was permitted to take place over five additional days, in the absence and presence of treatment with Sucralfate.
A third study was begun one day following the start of study 2, in which ulcer evolution was allowed to take place over five additional days, in the absence and presence of treatment with Compound III:Al.
In another study, after ulcer induction as above, a different dosage protocol was employed at 24 hours to evaluate the interaction of Compound III and orally administered sucralfate on ulcer healing. […] Here, daily drug doses of the following were used: (a) sucralfate at 200 mg/kg, alone and (b) in combination with 80 mg/kg Compound III given by mouth at -45 minutes, and, in a third group, (c) in combination with 10 mg/kg Compound III given IV also at -45 minutes. In this interaction study, drug treatment was continued for three and not five days, as was the case for the above studies, followed by passage of two additional non-treatment days before sacrifice of animals for evaluation of stomach ulcer area and perforation.
Data from all ulcer-healing studies employing a drug dosage of 200 mg/kg and the same ulcerogenesis protocol were pooled as to the frequency of gastric perforation observed on day five, not shown separately, with the day six perforation data shown above.

[2] = Acute toxicity in the mouse (Example 29 A); conditions: in vivo
From the text: Acute intraperitoneal and oral toxicity of Compound III was studied in the mouse. Ten animals per dose were employed.

For `CC1(C)O[C@H]2O[C@H]([C@@H](COS(=O)(=O)O)OS(=O)(=O)O)[C@H](OS(=O)(=O)O)[C@H]2O1` [Compound III, 1,2-O-(2-Propylidene)-3,5,6-tri-O-sulfo-α-D-glucofuranose, tripotassium salt], which MPO ([1]; 17 mg/kg, n = 6) is on record?
The MPO was 32.17 ± 2.83 Rel. Units.

What about the MPO ([1]; 50 mg/kg, n = 12) of the same molecule?
Its MPO is 41.67 ± 8.93 Rel. Units.

What about the “Frequency of rats with bleeding ulcers” value (gastric ulcers; ethanol + heparin, 24 hours, P<0.01) of the same molecule?
Its value is 0% of Total in Group.

And the “Frequency of ulcer-bearing rats” value (gastric ulcers; ethanol + heparin, 24 hours)?
Its value is 25% of Total in Group.

And the “Frequency of rats with bleeding ulcers” value (gastric ulcers; ethanol, four hours)?
The value was 0% of Total in Group.

And the “Frequency of ulcer-bearing rats” value (gastric ulcers; ethanol, four hours)?
The value was 11% of Total in Group.

And the inhibition of edema (mouse paw)?
The inhibition of edema was 33-40%.

And the “effect on established ulcers, in words” value (gastric mucosal ulcers)?
The value was “used alone did not enhance the healing process; also recorded: able to prevent the perforation of established ulcers”.

What about the LD50 ([2]; ip, read-out: LD50, intraperitoneal) of the same molecule?
Its LD50 is 2800 mg/kg.

And the NOAEL ([2]; iv)?
Its NOAEL is 3000 mg/kg.

What about the “oral dose producing death” value ([2]; po) of the same molecule?
The value was > 4500 mg/kg.
